Assay results published in patent publication US20150315212A1, “SUBSTITUTED 1,4-DITHIINE DERIVATIVES AND THEIR USE AS FUNGICIDES” (BASF SE, priority 2012, published 2015).

What was measured:
Septoria tritici = experiment: Preventative control of leaf blotch on wheat (Example 4); assay type: in vivo; details: 500 ppm, sprayed the day before inoculation, wheat seedlings, assessed after 4 weeks; untreated plants 90% infected
Alternaria solani = details: 500 ppm, sprayed the day before inoculation, tomato seedlings, assessed after 5 days; untreated plants 90% infected
Protocol: Preventative Fungicidal Control of Early Blight on Tomatoes (Alternaria solani)
Young seedlings of tomato plants were grown in pots. These plants were sprayed to run-off with an aqueous suspension, containing the concentration of active ingredient or mixture mentioned in the table below. The next day, the treated plants were inoculated with an aqueous suspension of Alternaria solani. Then the trial plants were immediately transferred to a humid chamber. After 5 days at 18 to 20° C. and a relative humidity close to 100%, the extent of fungal attack on the leaves was visually assessed as % diseased leaf area.

Phakopsora pachyrhizi = experiment: Protective control of soy bean rust on soy beans (Example 5); assay type: in vivo; details: 500 ppm, sprayed to run-off 1 day before inoculation, soy bean seedlings, assessed after fourteen days; untreated plants 90% infected

Q: Which “infection (% diseased leaf area)” value (Septoria tritici) does the source give for “6-Methyl-5H-Pyrrolo[3″,4″:5,6][1,4]dithiino-[2,3-C]isothiazole-3-carbonitrile-5,7(6H)-dione [Example 1.1]” here?
A: less than or equal to 3%

Q: What about the “infection (% diseased leaf area)” value (Alternaria solani) of the same substance?
A: less than or equal to 5%

Q: What about the “infection (% diseased leaf area)” value (Phakopsora pachyrhizi) of the same substance?
A: less than or equal to 1%
